These results are taken from EP0308983A2, “NMR imaging with Mn(II) coordination compositions” (priority 1987, dated 1989).

Data set [1] can be described thus: Plasma clearance: plasma T₁ and T₂ times after injection. It is filed as in vivo. The following applies: rabbit, 0.1 mmole/kg; for plasma T₁ / plasma T₂: 0.15 T.
Protocol: A dose of 0.1 mmole/kg of GdDTPA was injected into a rabbit and blood samples were drawn at 10 min intervals for 50 min. The blood was centrifuged, and the plasma T₁ and T₂ times were measured at 0.15 T with a RADX PROTON SPIN ANALYZER (Houston, TX).
Data set [2] concerns test population of animals. The conditions noted are these: for LD₅₀: Table A, species and unit not given; for Safety Factor: in vivo.
A short description of data set [3]: Dose needed to lower blood or plasma T₁ to 200 msec at 0.15 T.
Data set [4] can be described thus: Paramagnetic relaxation properties in water at 10 MHz (0.15T), RADX spin analyzer. It is filed as physicochemical. The following applies: 10 MHz (0.15T); for spin-lattice (T₁) relaxation value / spin-spin (T₂) relaxation value: 37°C, triplicate, mean +/- SD; for millimolar relaxivity for T₁ / millimolar relaxivity for T₂: in water; for millimolar relaxivity for T₁: calculated from T₁ and concentration; for millimolar relaxivity for T₂: calculated from T₂ and concentration. How it is done: The paramagnetic relaxation properties of [manganese(II)·(H₂O)₂·(L-alanine)₂]⁺²(Cl₂)⁻² in water were measured at 10 MHz (0.15T) with a spin analyzer (RADX; Houston, TX) at 37°C. After thermal equilibrium, the spin-lattice (T₁) and spin-spin (T₂) relaxation values were measured in triplicate.
The paramagnetic relaxation of the title compound in water was measured at 10 MHz (0.15T) with a spin analyzer (RADX; Houston, TX). After thermal equilibrium, the spin-lattice (T₁) and spin-spin (T₂) relaxation values were measured.
Relaxivity was measured at 10 MHz (0.15T) as described in Example 10.
The relaxivity of the title compound was performed at 0.15 T (10 MHz) with a RADX Spin Analyzer (Houston, TX) at 37°C.

The procedure of data set [5]: Three buffers were tested for suitability.
One part of the solution of the title compound, synthesized according to Example 35, was added to one part of a US National Bureau of Standard buffer solution for pH 4.0 (American Scientific Products; Phthalate reference buffer).

Data set [6] is described as follows: Paramagnetic relaxation properties in human plasma at 37°C. The data set is classed as physicochemical. The conditions noted are these: for T₂ value / T₁ value / R₁ / R₂ / T₁ changed by (repeat measurement) / T₂ changed by (repeat measurement): 37°C; for T₁ value: triplicate; for T₁ changed by (repeat measurement) / T₂ changed by (repeat measurement): repeat measurement 80 minutes later; for T₂ relaxivity in plasma, fold greater than GdDTPA: versus GdDTPA; for T₁ relaxivity in plasma, fold greater than GdDTPA: versus gadolinium diethylenetriaminepentaacetic acid chelate (GdDTPA).

The mark [7] stands for this setting: one part + one part carbonate pH reference buffer pH 10.0, the pH was 10.45.
The mark [8] stands for this setting: one part + one part phosphate pH reference buffer pH 7.0, the pH was 7.63.
[9] abbreviates: one part solution + one part phthalate reference buffer pH 4.0, the pH was 4.69.
Setting [10] is: dose needed to lower T₁ from 1500 to 200 msec at 0.15 T, unit not given.

Several values for one entry are separate records, joined by “and”; a condition that tells them apart may be missing. Identical values can stand only once. Like-named read-outs stand apart in the source and are kept apart here.

Turning to `O=C([O-])CN(CCN(CC(=O)[O-])CC(=O)O)CCN(CC(=O)[O-])CC(=O)O.[Gd+3]` [GdDTPA, gadolinium diethylenetriaminepentaacetic acid chelate, reference compound], the “time for which the plasma T₁ was maintained below 300” value in data set [1] was 10 min. The “plasma T₁” value in data set [1] (0 min (baseline)) was 1380 ms; in data set [1] (10 min) it was 259 ms and 269 ms; in data set [1] (20 min), 349 ms; in data set [1] (30 min), 348 ms; in data set [1] (40 min), 352 ms; in data set [1] (50 min), 340 ms. Further, the “plasma T₂” value in data set [1] (0 min (baseline)) came out at 588 ms; in data set [1] (10 min) it was 245 ms; in data set [1] (20 min) it was 287 ms; in data set [1] (30 min), 283 ms; in data set [1] (40 min), 270 ms; in data set [1] (50 min) it was 298 ms.

As for `CC(=O)[O-].CC(=O)[O-].NCC(=O)O.NCC(=O)O.[Mn+2]` [Mn(acetate)₂-bis-glycine], in data set [2], the LD₅₀ is reported as 0.7 and the “Safety Factor” value was 70. In data set [3], the “Plasma Dose, T₁ = 200” value stood at 0.10.

With `CC(=O)[O-].CC(=O)[O-].NCC(=O)O.NCC(=O)O.O.O.[Mn+2]` [[Manganese(II)·(H₂O)₂·(Glycine)₂]Diacetate], in data set [4] (1 mM solution in water), the “Relaxivity (mM⁻¹sec⁻¹) Spin-Lattice” value worked out at 8.40 mM⁻¹ s⁻¹ and the “Relaxivity (mM⁻¹sec⁻¹) Spin-Spin” value stood at 34.5 mM⁻¹ s⁻¹. For the same compound, in data set [5] (setting [7]), the “appearance of the solution” value was “remained clear” and the “change of relaxivity over a 12 hour time period” value (from here on “change of relaxivity”) is recorded as “the relaxivity did not change”. In data set [5] (setting [8]), the “appearance of the solution” value is on record as “remained clear” and the “change of relaxivity” value is recorded as “the relaxivity did not change”. Also, in data set [5] (setting [9]), the “appearance of the solution” value is given as “remained clear” and the “change of relaxivity” value is listed as “the relaxivity did not change”.

As to `CC[C@H](C)[C@H](N)C(=O)O.CC[C@H](C)[C@H](N)C(=O)O.O.O.[Cl-].[Cl-].[Mn+2]` [[Manganese(II)·(H₂O)₂·(L-isoleucine)₂]⁺²(Cl₂)⁻²], in data set [4] (0.99 mM solution in water), the “spin-lattice (T₁) relaxation value” was determined as 109 ± 7 ms and the “spin-spin (T₂) relaxation value” was 28 ± 1 ms. Further, in data set [4], the “millimolar relaxivity for T₁” value is 9.66 mM⁻¹ s⁻¹ and the “millimolar relaxivity for T₂” value was 37.6 mM⁻¹ s⁻¹. Besides, in data set [6] (90 µM final concentration), the T₂ value was determined as 182 ± 5 ms and the T₁ value was 235 ± 7 ms. In data set [6], the R₁ amounted to 47.3 mM⁻¹ s⁻¹, the R₂ stood at 61.1 mM⁻¹ s⁻¹, the “T₁ changed by (repeat measurement)” value is recorded as 2% and the “T₂ changed by (repeat measurement)” value is 8%. Moreover, in data set [6], the “T₂ relaxivity in plasma, fold greater than GdDTPA” value is 12.7 fold and the “T₁ relaxivity in plasma, fold greater than GdDTPA” value is 9.9 fold.

On to `CC(C)C[C@H](N)C(=O)O.CC(C)C[C@H](N)C(=O)O.O.O.[Cl-].[Cl-].[Mn+2]` [[Manganese(II)·(H₂O)₂·(L-leucine)₂]⁺²(Cl₂)⁻²], for which, in data set [4] (0.94 mM solution in water), the “spin-lattice (T₁) relaxation value” came to 114 ± 9 ms and the “spin-spin (T₂) relaxation value” stood at 27 ± 1 ms. Also, in data set [4], the “millimolar relaxivity for T₁” value was 9.33 mM⁻¹ s⁻¹ and the “millimolar relaxivity for T₂” value is 39.4 mM⁻¹ s⁻¹. In data set [6] (90 µM final concentration), this compound displayed a T₂ value of 192 ± 0 ms and a T₁ value of 243 ± 13 ms. Further, in data set [6], the R₁ amounted to 45.7 mM⁻¹ s⁻¹, the R₂ came out at 57.9 mM⁻¹ s⁻¹, the “T₁ changed by (repeat measurement)” value was found to be 5% and the “T₂ changed by (repeat measurement)” value is recorded as 4%. Also, in data set [6], the “T₂ relaxivity in plasma, fold greater than GdDTPA” value amounted to 12.1 fold and the “T₁ relaxivity in plasma, fold greater than GdDTPA” value is reported as 9.5 fold.

Consider `N[C@@H](Cc1ccccc1)C(=O)O.N[C@@H](Cc1ccccc1)C(=O)O.O.O.[Cl-].[Cl-].[Mn+2]` [[Manganese(II)·(H₂O)₂·(L-phenylalanine)₂]⁺²(Cl₂)⁻²], for which, in data set [4] (0.95 mM solution in water), the “spin-lattice (T₁) relaxation value” worked out at 107 ± 5 ms and the “spin-spin (T₂) relaxation value” was 27 ± 1 ms. For the same compound, in data set [4], the “millimolar relaxivity for T₁” value was 9.84 mM⁻¹ s⁻¹ and the “millimolar relaxivity for T₂” value was 39.0 mM⁻¹ s⁻¹. For the same compound, in data set [6] (90 µM final concentration), the T₂ value came out at 186 ± 7 ms and the T₁ value amounted to 240 ± 10 ms. In data set [6], the R₁ is 46.3 mM⁻¹ s⁻¹, the R₂ was determined as 59.7 mM⁻¹ s⁻¹, the “T₁ changed by (repeat measurement)” value was found to be 2% and the “T₂ changed by (repeat measurement)” value stood at 2%. Besides, in data set [6], the “T₂ relaxivity in plasma, fold greater than GdDTPA” value came out at 12.4 fold and the “T₁ relaxivity in plasma, fold greater than GdDTPA” value stood at 9.65 fold.

As to `N[C@@H](Cc1ccc(O)cc1)C(=O)O.N[C@@H](Cc1ccc(O)cc1)C(=O)O.O.O.[Cl-].[Cl-].[Mn+2]` [[Manganese(II)·(H₂O)₂·(L-tyrosine)₂]⁺²(Cl₂)⁻²], in data set [4] (0.68 mM solution in water), the “spin-lattice (T₁) relaxation value” worked out at 148 ± 1 ms and the “spin-spin (T₂) relaxation value” amounted to 38 ± 1 ms. Moreover, in data set [4], the “millimolar relaxivity for T₁” value is 9.94 mM⁻¹ s⁻¹ and the “millimolar relaxivity for T₂” value was 38.7 mM⁻¹ s⁻¹. In addition, in data set [6] (65 µM final concentration), the T₂ value was found to be 216 ± 2 ms and the T₁ value stood at 312 ± 20 ms. In data set [6], the R₁ stood at 49.3 mM⁻¹ s⁻¹, the R₂ was 71.6 mM⁻¹ s⁻¹, the “T₁ changed by (repeat measurement)” value was 5% and the “T₂ changed by (repeat measurement)” value is on record as 9%. Further, in data set [6], the “T₂ relaxivity in plasma, fold greater than GdDTPA” value is on record as 14.8 fold and the “T₁ relaxivity in plasma, fold greater than GdDTPA” value was determined as 10.3 fold.

Consider Manganese chloride [MnCl₂], for which, in data set [3] (setting [10]), the “Plasma Dose, T₁ = 200” value amounted to 0.01.

As to MnEDTA [reference compound], in data set [2], the LD₅₀ was determined as 5.0 and the “Safety Factor” value is reported as 38. The “Plasma Dose, T₁ = 200” value in data set [3] (setting [10]) is reported as 0.13.
